According to patent publication US10214531B2 (Institute for Drug Discovery, LLC, priority 2013, dated 2019):
Counter-ions that a name gives are not always drawn.

Molecular target: recombinant human AMCase (Homo sapiens, UniProt Q9BZP6)
Assay: Human AMCase Activity Assay
Format: biochemical
Details: recombinant hAMCase, 4-methylumbelliferyl chitobioside substrate, citrate buffer pH 5.2, 37° C., 60 minutes; read-out: Activity (IC50 value key)
Description: Human AMCase Activity Assay
The assay was run in the 96-well plate format, each reaction in the total volume of 100 μl. 4-Methylumbelliferyl B-D-N,N′ diacetylchitobioside hydrate was used as a substrate for the enzyme. Upon hydrolysis by AMCase, the substrate releases 4-methylumbelliferyl (4MU), when ionized in basic pH, emits fluorescence of 460 nm.
Briefly, 40 μl of a substrate was added to each well, followed by 10 μl of compound dilution and 50 μl of hAMCase recombinant enzyme solution. The reaction was carried out in citrate buffer, pH 5.2, in the dark, at 37° C. for 60 minutes with shaking.

Chain of recombinant human AMCase (Q9BZP6 22-476): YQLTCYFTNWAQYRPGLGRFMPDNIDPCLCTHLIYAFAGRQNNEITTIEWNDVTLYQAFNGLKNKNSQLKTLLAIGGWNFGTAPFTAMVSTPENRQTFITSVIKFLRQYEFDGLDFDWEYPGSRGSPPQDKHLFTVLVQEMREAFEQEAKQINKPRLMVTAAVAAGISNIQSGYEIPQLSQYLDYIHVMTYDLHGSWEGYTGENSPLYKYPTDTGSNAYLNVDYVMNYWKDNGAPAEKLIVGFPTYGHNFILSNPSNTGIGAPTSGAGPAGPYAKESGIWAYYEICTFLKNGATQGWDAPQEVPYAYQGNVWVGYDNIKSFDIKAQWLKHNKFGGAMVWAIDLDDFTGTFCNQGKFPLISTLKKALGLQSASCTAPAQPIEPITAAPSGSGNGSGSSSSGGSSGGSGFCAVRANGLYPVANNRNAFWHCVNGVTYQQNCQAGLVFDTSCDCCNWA

Row | Structure (SMILES) | IC50 [µM]
1 | Nc1n[nH]c(N2CCC(c3nnc(-c4ccc(F)cc4)o3)CC2)n1 [Example 43, 5-(4-(5-(4-fluorophenyl)-1,3,4-oxadiazol-2-yl)piperidin-1-yl)-1H-1,2,4-triazol-3-amine] | > 100
2 | CC(Oc1ccccc1F)C(=O)N1CCN(c2nc(N)n[nH]2)CC1 (centres unmarked) [Example 44, 1-(4-(3-amino-1H-1,2,4-triazol-5-yl)piperazin-1-yl)-2-(2-fluorophenoxy)propan-1-one] | > 100
3 | Cc1ccc(OC(C)C(=O)N2CCN(c3nc(N)n[nH]3)CC2)c(Cl)c1 (centres unmarked) [Example 45, 1-(4-(3-amino-1H-1,2,4-triazol-5-yl)piperazin-1-yl)-2-(2-chloro-4-methylphenoxy)propan-1-one] | > 100
4 | Nc1n[nH]c(N2CCN(C(=O)OCc3ccccc3)CC2)n1 [Example 47, benzyl 4-(3-amino-1H-1,2,4-triazol-5-yl)piperazine-1-carboxylate] | > 100
5 | Nc1n[nH]c(N2CCN(C(=O)c3cc4ccccc4o3)CC2)n1 [Example 48, (4-(3-amino-1H-1,2,4-triazol-5-yl)piperazin-1-yl)(benzofuran-2-yl)methanone] | > 100
6 | Nc1n[nH]c(N2CCC(C(=O)NCc3ccc(F)cc3)CC2)n1 [Example 49, 1-(3-amino-1H-1,2,4-triazol-5-yl)-N-(4-fluorobenzyl)piperidine-4-carboxamide] | > 100
7 | Nc1n[nH]c(N2CCC(C(=O)NCc3ccc(F)cc3C(F)(F)F)CC2)n1 [Example 50, 1-(3-amino-1H-1,2,4-triazol-5-yl)-N-(4-fluoro-2-(trifluoromethyl)benzyl)piperidine-4-carboxamide] | > 100
8 | Nc1n[nH]c(N2CCC(C(=O)NCc3ccccc3F)CC2)n1 [Example 51, 1-(3-amino-1H-1,2,4-triazol-5-yl)-N-(2-fluorobenzyl)piperidine-4-carboxamide] | > 100
9 | Nc1n[nH]c(N2CCC(C(=O)NCc3ccc(Cl)cc3)CC2)n1 [Example 52, 1-(3-amino-1H-1,2,4-triazol-5-yl)-N-(4-chlorobenzyl)piperidine-4-carboxamide] | > 100
10 | Nc1n[nH]c(N2CCC(C(=O)NCc3ccccc3Br)CC2)n1 [Example 53, 1-(3-amino-1H-1,2,4-triazol-5-yl)-N-(2-bromobenzyl)piperidine-4-carboxamide] | > 100
11 | Nc1n[nH]c(N2CCC(C(=O)NCc3ccc(F)c(C(F)(F)F)c3)CC2)n1 [Example 54, 1-(3-amino-1H-1,2,4-triazol-5-yl)-N-(4-fluoro-3-(trifluoromethyl)benzyl)piperidine-4-carboxamide] | > 100
12 | Nc1n[nH]c(N2CCC(NS(=O)(=O)Cc3cccc(F)c3)CC2)n1 [Example 56, N-(1-(3-amino-1H-1,2,4-triazol-5-yl)piperidin-4-yl)-1-(3-fluorophenyl)methanesulfonamide] | 10 to 100
13 | Nc1n[nH]c(N2CCC(NS(=O)(=O)Cc3ccc(F)cc3)CC2)n1 [Example 57, N-(1-(3-amino-1H-1,2,4-triazol-5-yl)piperidin-4-yl)-1-(4-fluorophenyl)methanesulfonamide] | 10 to 100
14 | Nc1n[nH]c(N2CCC(NS(=O)(=O)Cc3cc(Cl)cc(Cl)c3)CC2)n1 [Example 58, N-(1-(3-amino-1H-1,2,4-triazol-5-yl)piperidin-4-yl)-1-(3,5-dichlorophenyl)methanesulfonamide] | 1 to 10
15 | Nc1n[nH]c(N2CCC(NS(=O)(=O)Cc3cccc(Cl)c3)CC2)n1 [Example 59, N-(1-(3-amino-1H-1,2,4-triazol-5-yl)piperidin-4-yl)-1-(3-chlorophenyl)methanesulfonamide] | 1 to 10
16 | CCC(CN1CCN(c2nc(N)n[nH]2)CC1)Oc1ccc(Br)cc1 (centres unmarked) [Example 60, 5-(4-(2-(4-bromophenoxy)butyl)piperazin-1-yl)-1H-1,2,4-triazol-3-amine] | 10 to 100
17 | C[C@H](CN1CCN(c2nc(N)n[nH]2)CC1)Oc1ccc(Br)cc1 [Example 61, (R)-5-(4-(2-(4-bromophenoxy)propyl)piperazin-1-yl)-1H-1,2,4-triazol-3-amine] | 1 to 10
18 | C[C@@H](CN1CCN(c2nc(N)n[nH]2)CC1)Oc1ccc(Br)cc1 [Example 62, (S)-5-(4-(2-(4-bromophenoxy)propyl)piperazin-1-yl)-1H-1,2,4-triazol-3-amine] | 0.1 to 1
19 | CCC(CN1CCN(c2nc(N)n[nH]2)CC1)Oc1ccc(Cl)cc1 (centres unmarked) [Example 63, 5-(4-(2-(4-chlorophenoxy)butyl)piperazin-1-yl)-1H-1,2,4-triazol-3-amine] | 10 to 100
20 | C[C@H](CN1CCN(c2nc(N)n[nH]2)CC1)Oc1ccc(Cl)cc1 [Example 64, (R)-5-(4-(2-(4-chlorophenoxy)propyl)piperazin-1-yl)-1H-1,2,4-triazol-3-amine] | 10 to 100
21 | C[C@@H](CN1CCN(c2nc(N)n[nH]2)CC1)Oc1ccc(Cl)cc1 [Example 65, (S)-5-(4-(2-(4-chlorophenoxy)propyl)piperazin-1-yl)-1H-1,2,4-triazol-3-amine] | 10 to 100

Row | Structure (SMILES) | IC50 [µM]
22 | Nc1n[nH]c(N2CCN(CCCc3ccc(Cl)cc3)C(CO)C2)n1 (centres unmarked) [Example 66, (4-(3-amino-1H-1,2,4-triazol-5-yl)-1-(3-(4-chlorophenyl)propyl)piperazin-2-yl)methanol] | 10 to 100
23 | Nc1n[nH]c(N2CCC(NC(=O)Nc3ccc(Cl)cc3)CC2)n1 [Example 67, 1-(1-(3-amino-1H-1,2,4-triazol-5-yl)piperidin-4-yl)-3-(4-chlorophenyl)urea] | > 100
24 | Nc1n[nH]c(N2CCC(NC(=O)Nc3ccc(F)c(F)c3)CC2)n1 [Example 68, 1-(1-(3-amino-1H-1,2,4-triazol-5-yl)piperidin-4-yl)-3-(3,4-difluorophenyl)urea] | > 100
25 | Nc1n[nH]c(N2CCC(CNC(=O)c3cccc(Br)c3)CC2)n1 [Example 69, N-((1-(3-amino-1H-1,2,4-triazol-5-yl)piperidin-4-yl)methyl)-3-bromo benzamide] | > 100
26 | Nc1n[nH]c(N2CCC(CC(=O)Nc3ccc(Br)cc3)CC2)n1 [Example 70, 2-(1-(3-amino-1H-1,2,4-triazol-5-yl)piperidin-4-yl)-N-(4-bromophenyl)acetamide] | > 100
27 | Nc1n[nH]c(N2CCC(NC(=O)C(O)c3ccc(Cl)cc3)CC2)n1 (centres unmarked) [Example 71, N-(1-(3-amino-1H-1,2,4-triazol-5-yl)piperidin-4-yl)-2-(4-chlorophenyl)-2-hydroxyacetamide] | > 100
28 | Nc1n[nH]c(N2CCN(C(=O)[C@H](O)Cc3ccc(Cl)cc3)CC2)n1 [Example 72, (R)-1-(4-(3-amino-1H-1,2,4-triazol-5-yl)piperazin-1-yl)-3-(4-chlorophenyl)-2-hydroxypropan-1-one] | > 100
29 | Nc1n[nH]c(N2CCN(C(=O)C(O)Cc3ccccc3Cl)CC2)n1 (centres unmarked) [Example 73, 1-(4-(3-amino-1H-1,2,4-triazol-5-yl)piperazin-1-yl)-3-(2-chlorophenyl)-2-hydroxypropan-1-one] | > 100
30 | Nc1n[nH]c(N2CCN(C(=O)COc3ccc(Cl)c([N+](=O)[O-])c3)CC2)n1 [Example 74, 1-(4-(3-amino-1H-1,2,4-triazol-5-yl)piperazin-1-yl)-2-(4-chloro-3-nitrophenoxy)ethanone] | > 100
31 | Nc1n[nH]c(N2CCN(C(=O)[C@@H](N)Cc3ccc(Cl)cc3Cl)CC2)n1 [Example 75-1, (S)-2-amino-1-(4-(3-amino-1H-1,2,4-triazol-5-yl)piperazin-1-yl)-3-(2,4-dichlorophenyl)propan-1-one dihydrochloride] | > 100
32 | Nc1n[nH]c(N2CCN(C(=O)[C@@H](N)Cc3ccccc3Cl)CC2)n1 [Example 75-2, (S)-2-amino-1-(4-(3-amino-1H-1,2,4-triazol-5-yl)piperazin-1-yl)-3-(2-chlorophenyl)propan-1-one dihydrochloride] | > 100
33 | CC(=O)NC(CC(=O)N1CCN(c2nc(N)n[nH]2)CC1)c1ccc(F)cc1 (centres unmarked) [Example 76, N-(3-(4-(3-amino-1H-1,2,4-triazol-5-yl)piperazin-1-yl)-1-(4-fluorophenyl)-3-oxopropyl)acetamide] | > 100
34 | Nc1n[nH]c(N2CCN(CCO)CC2)n1 [Example 77, 2-(4-(3-amino-1H-1,2,4-triazol-5-yl)piperazin-1-yl)ethanol] | > 100
35 | Nc1n[nH]c(N2CCN(CCOc3ccccc3)CC2)n1 [Example 78, 5-(4-(2-phenoxyethyl)piperazin-1-yl)-1H-1,2,4-triazol-3-amine] | > 100
36 | Nc1n[nH]c(N2CCN(CCOc3ccccc3Cl)CC2)n1 [Example 79, 5-(4-(2-(2-chlorophenoxy)ethyl)piperazin-1-yl)-1H-1,2,4-triazol-3-amine] | 10 to 100
37 | Nc1n[nH]c(N2CCN(CCOCc3ccccc3)CC2)n1 [Example 80, 5-(4-(2-(benzyloxy)ethyl)piperazin-1-yl)-1H-1,2,4-triazol-3-amine] | > 100
38 | COc1ccc(OCCN2CCN(c3nc(N)n[nH]3)CC2)cc1 [Example 81, 5-(4-(2-(4-methoxyphenoxy)ethyl)piperazin-1-yl)-1H-1,2,4-triazol-3-amine] | 10 to 100
39 | Nc1n[nH]c(N2CCN(CCOc3ccc4[nH]ccc4c3)CC2)n1 [Example 82, 5-(4-(2-((1H-indol-5-yl)oxy)ethyl)piperazin-1-yl)-1H-1,2,4-triazol-3-amine] | > 100
40 | Nc1n[nH]c(N2CCN(CCOc3ccccc3-c3ccccc3)CC2)n1 [Example 83, 5-(4-(2-([1,1′-biphenyl]-2-yloxy)ethyl)piperazin-1-yl)-1H-1,2,4-triazol-3-amine] | 10 to 100
41 | CC(C)c1ccccc1OCCN1CCN(c2nc(N)n[nH]2)CC1 [Example 84, 5-(4-(2-(2-isopropylphenoxy)ethyl)piperazin-1-yl)-1H-1,2,4-triazol-3-amine] | 10 to 100
